# PubChem BioAssay (NCI)
#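 A five-concentration, 48-hour dose response in 96-well plates underlies each endpoint, interpolated linearly between surrounding concentrations. TGI is the concentration that stops growth completely.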
# Assays:
# Assay in all cases: DTP human tumour cell line panel, 48 h
# EKVX NSCLC = system: EKVX NSCLC
# HOP-92 NSCLC = system: HOP-92 NSCLC
# HT29 colon = system: HT29 colon
# M14 melanoma = system: M14 melanoma
# NCI-H226 lung = system: NCI-H226 lung
# NCI/ADR-RES ovarian = system: NCI/ADR-RES ovarian
# RXF 393 renal = system: RXF 393 renal
# SW-620 colon = system: SW-620 colon
# T-47D breast = system: T-47D breast
# U251 CNS = system: U251 CNS
SMILES,TGI (EKVX NSCLC),TGI (HOP-92 NSCLC),TGI (HT29 colon),TGI (M14 melanoma),TGI (NCI-H226 lung),TGI (NCI/ADR-RES ovarian),TGI (RXF 393 renal),TGI (SW-620 colon),TGI (T-47D breast),TGI (U251 CNS)
COC(=O)c1c(C#C[Si](C)(C)C)c(C#C[Si](C)(C)C)c(C#C[Si](C)(C)C)c(C#C[Si](C)(C)C)c1C(=O)OC,> 100 µM,> 100 µM,> 100 µM,> 100 µM,> 100 µM,> 100 µM,> 100 µM,> 100 µM,> 100 µM,> 100 µM
C=C1C(=O)O[C@H]2C3C(=C(C)CC[C@@H]12)C(=O)[C@@H]1OC31C (some centres undefined),33.2 µM,10.7 µM,4.28 µM,3.19 µM,20.5 µM,10.7 µM,2.99 µM,2.6 µM,3.96 µM,26.3 µM
CN(C)c1ccc(/C=C2\C[C@H]3[C@@H]4CCc5cc(O)ccc5[C@H]4CC[C@]3(C)C2=O)cc1,> 100 µM,> 100 µM,> 100 µM,> 100 µM,67.3 µM,> 100 µM,> 100 µM,> 100 µM,> 100 µM,> 100 µM
OC(O)(C(F)(F)F)C(F)(F)F,> 100 µM,> 100 µM,> 100 µM,> 100 µM,> 100 µM,> 100 µM,> 100 µM,> 100 µM,> 100 µM,> 100 µM
N#Cc1c(C#N)c(-c2ccccc2)n(/N=C\c2ccccc2)c1N,63.9 µM,68.4 µM,83.1 µM,> 100 µM,68.7 µM,52.5 µM,70.5 µM,> 100 µM,29.1 µM,47.4 µM
CSC1NNC2(C(=O)N1)c1ccccc1-c1ccccc12 (centres undefined),> 10 µM,> 10 µM,> 10 µM,> 10 µM,> 10 µM,> 10 µM,> 10 µM,> 10 µM,> 10 µM,
CCOC(=O)CCC(C(=O)OCC)n1nnc2cc(Nc3c(C)[n+]([O-])c4ccc(Cl)cc4[n+]3[O-])ccc21 (centres undefined),97.1 µM,> 100 µM,> 100 µM,> 100 µM,> 100 µM,> 100 µM,> 100 µM,> 100 µM,> 100 µM,> 100 µM
c1ccc2c(c1)c1c3n2-c2cc(on2)C3CCC1 (centres undefined),> 100 µM,> 100 µM,> 100 µM,> 100 µM,> 100 µM,> 100 µM,> 100 µM,> 100 µM,> 100 µM,> 100 µM
COC(=O)C(C(=O)OC)C1CC(=O)c2c(Br)sc(Br)c21 (centres undefined),32.4 µM,35 µM,32.9 µM,40.8 µM,53.4 µM,37.1 µM,84.4 µM,26.4 µM,> 100 µM,29.8 µM
COc1ccc(C(C)NNC(=O)c2ccncc2)cc1F (centres undefined),> 100 µM,> 100 µM,> 100 µM,> 100 µM,> 100 µM,> 100 µM,> 100 µM,> 100 µM,> 100 µM,> 100 µM
S=C(Nc1ccc2c(c1)Cc1ccccc1-2)Nc1ccc2c(c1)Cc1ccccc1-2,> 100 µM,> 100 µM,> 100 µM,> 100 µM,> 100 µM,> 100 µM,> 100 µM,> 100 µM,> 100 µM,> 100 µM
O=c1oc2ccccc2c(O)c1Cc1cccc(Cc2c(O)c3ccccc3oc2=O)c1,> 100 µM,> 100 µM,> 100 µM,> 100 µM,> 100 µM,> 100 µM,> 100 µM,> 100 µM,> 100 µM,> 100 µM
Cn1c(=O)c2[nH]c(CCC(=O)O)nc2n(C)c1=O,> 100 µM,> 100 µM,> 100 µM,> 100 µM,> 100 µM,> 100 µM,> 100 µM,> 100 µM,> 100 µM,> 100 µM
COC(=O)C1[C@H](C(=O)OC)C1(Br)CBr (some centres undefined),> 100 µM,> 100 µM,> 100 µM,> 100 µM,> 100 µM,> 100 µM,> 100 µM,> 100 µM,> 100 µM,> 100 µM
O=C(NCc1cccnc1)C(=O)NCc1cccnc1,> 100 µM,> 100 µM,> 100 µM,> 100 µM,> 100 µM,> 100 µM,> 100 µM,> 100 µM,> 100 µM,> 100 µM
C=C(C(=O)OC)[C@H]1CC/C(C)=C/CC/C(C)=C/CC[C@@]2(C)O[C@@H]2C1,39.5 µM,35.1 µM,34.4 µM,46.5 µM,44.4 µM,52.1 µM,28.8 µM,37.2 µM,44.7 µM,44 µM
COc1ccc(C2NC(=O)Nc3c2c(=O)oc2c3ccc3ccccc32)cc1 (centres undefined),96.8 µM,> 100 µM,> 100 µM,> 100 µM,96.9 µM,> 100 µM,> 100 µM,> 100 µM,> 100 µM,> 100 µM

SMILES,TGI (EKVX NSCLC),TGI (HOP-92 NSCLC),TGI (HT29 colon),TGI (M14 melanoma),TGI (NCI-H226 lung),TGI (NCI/ADR-RES ovarian),TGI (RXF 393 renal),TGI (SW-620 colon),TGI (T-47D breast),TGI (U251 CNS)
O=C1C(=Cc2ccccc2[N+](=O)[O-])N=C(c2ccccc2)N1n1c(-c2ccccc2)nc2ccccc2c1=O,> 100 µM,49.3 µM,> 100 µM,> 100 µM,85.3 µM,62.6 µM,56.2 µM,> 100 µM,62.6 µM,> 100 µM
O=C(NCCCCNCCCNC(=O)OCc1ccccc1)OCc1ccccc1,> 100 µM,87.3 µM,37.7 µM,40.1 µM,> 100 µM,> 100 µM,66.6 µM,> 100 µM,57.8 µM,> 100 µM
COC(=O)C1=C(C)NC2(C)OC(C)(O)C(C(C)=O)C12C(C)=O (centres undefined),> 100 µM,89.2 µM,> 100 µM,> 100 µM,53.1 µM,> 100 µM,> 100 µM,> 100 µM,> 100 µM,> 100 µM
c1ccc(CNc2ncnc3n[nH]nc23)cc1,> 100 µM,> 100 µM,> 100 µM,> 100 µM,> 100 µM,> 100 µM,> 100 µM,> 100 µM,> 100 µM,> 100 µM
COc1cc(S(=O)(=O)N/N=C/c2cc(Br)c(O)c(OC)c2)c(OC)cc1NC(C)=O,> 100 µM,> 100 µM,> 100 µM,> 100 µM,> 100 µM,> 100 µM,> 100 µM,> 100 µM,> 100 µM,> 100 µM
O=S(=O)(O)c1ccc(Nc2ccnc3cc(Cl)ccc23)cc1,> 100 µM,> 100 µM,> 100 µM,> 100 µM,> 100 µM,> 100 µM,> 100 µM,> 100 µM,> 100 µM,> 100 µM
COc1cccc(C2CC(=O)c3cccn32)c1 (centres undefined),> 100 µM,> 100 µM,> 100 µM,> 100 µM,> 100 µM,> 100 µM,> 100 µM,> 100 µM,> 100 µM,> 100 µM
COc1cc2c(cc1O)CC[C@@H]1C2CC[C@@]2(C)C1CC[C@@H]2O (some centres undefined),44.6 µM,> 97.9 µM,64.6 µM,> 100 µM,> 100 µM,2.73 µM,57.6 µM,> 100 µM,> 100 µM,> 62.4 µM
C[C@@H]1OCC(O)C([C@H]2OC(c3ccccc3)=N[C@H]2CO)O1 (some centres undefined),> 100 µM,> 100 µM,> 100 µM,> 100 µM,> 100 µM,> 100 µM,> 100 µM,> 100 µM,> 100 µM,> 100 µM
COC(=O)/C=C\C(C#N)(C#N)N=Cc1ccsc1,12.5 µM,3.7 µM,8.97 µM,8.23 µM,45.3 µM,> 19.7 µM,3.72 µM,3.34 µM,4.17 µM,29.7 µM
COC1=CC(=O)c2c(cc(COP(=O)(N(C)CCBr)N(C)CCBr)n2C)C1=O,6.55 µM,7.54 µM,1.42 µM,2.56 µM,1.43 µM,16.7 µM,1.95 µM,7.58 µM,33 µM,8.43 µM
CSc1ccccc1P(CCP(c1ccccc1SC)c1ccccc1SC)c1ccccc1SC,97.7 µM,> 100 µM,> 100 µM,> 100 µM,> 45.2 µM,> 100 µM,> 84.9 µM,> 100 µM,> 100 µM,> 100 µM
Cn1c(=O)c2sc3cc4c(cc3c2c2ccccc21)sc1c(=O)n(C)c2ccccc2c14,> 100 µM,99.1 µM,> 100 µM,> 100 µM,> 100 µM,> 100 µM,45 µM,> 100 µM,> 100 µM,43.6 µM
COC(=O)C[C@H](CCSC)NC(=O)C[C@H](CCSC)NC(=O)C[C@H](CCSC)NC(=O)OC(C)(C)C,> 100 µM,36.9 µM,> 100 µM,> 100 µM,> 100 µM,> 100 µM,33.6 µM,> 100 µM,> 100 µM,56 µM
Nc1ccc(-c2nc3ccccc3s2)cc1,87.4 µM,31.9 µM,40.1 µM,34 µM,49 µM,56.4 µM,33.5 µM,41.1 µM,65.5 µM,31.9 µM
O=C(C=P(c1ccccc1)(c1ccccc1)c1ccccc1)c1ccc(-c2ccc(F)cc2F)cc1,11 µM,7.24 µM,3.94 µM,5.76 µM,7.16 µM,13.2 µM,7.29 µM,14.9 µM,7.58 µM,13.9 µM
